Where a SMILES comes first, the peptide text is derived from it. Bridges are numbered along the chain shown (N, C = ends). Where no end group is shown, it is not given here.
Columns and labels:
PAC1 = target: T1, PAC1 (Rattus norvegicus, UniProt P32215); assay: Rat maxadilan-induced increase in blood flow (MIIBF) PD model, laser Doppler imaging; assay type: in vivo; settings: for inhibition of maxadilan-induced increase in DBF: single bolus s.c., lowest dose of 0.3 mg/kg, 15 min prior to maxadilan, 45 min post peptide treatment; for inhibition of MIIBF (dermal blood flow): single bolus i.v., lowest dose of 0.1 mg/kg, 5 min prior to maxadilan, 35 min post peptide treatment
T1 construct: Naive male Sprague Dawley® rats aged 8-12 weeks at the time of the study were purchased from Charles River Laboratories; tissue Charles River Laboratories; host or cells: live male Sprague Dawley rats; dermal blood flow on abdominal skin
T1 sequence (P32215 20-523): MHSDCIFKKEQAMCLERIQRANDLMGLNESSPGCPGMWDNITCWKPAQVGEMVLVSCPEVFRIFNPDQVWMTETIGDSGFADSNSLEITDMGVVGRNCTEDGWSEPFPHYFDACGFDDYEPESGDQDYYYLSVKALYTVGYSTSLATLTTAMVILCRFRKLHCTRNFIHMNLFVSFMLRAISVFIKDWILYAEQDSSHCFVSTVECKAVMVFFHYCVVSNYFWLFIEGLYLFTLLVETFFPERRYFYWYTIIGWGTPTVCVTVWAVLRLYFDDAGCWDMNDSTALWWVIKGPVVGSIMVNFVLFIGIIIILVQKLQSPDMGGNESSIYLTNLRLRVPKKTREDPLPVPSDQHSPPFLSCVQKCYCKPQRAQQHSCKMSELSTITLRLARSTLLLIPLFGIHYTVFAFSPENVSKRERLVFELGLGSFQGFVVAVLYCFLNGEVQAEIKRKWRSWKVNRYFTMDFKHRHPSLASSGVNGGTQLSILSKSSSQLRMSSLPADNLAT
Method: PAC1 peptide antagonists were also evaluated in an in vivo pharmacodynamic model—a model of maxadilan-induced increase in blood flow.
Naive male Sprague Dawley® rats aged 8-12 weeks at the time of the study were purchased from Charles River Laboratories. Animals were group-housed in non-sterile, ventilated micro-isolator housing in Amgen Assessment and Accreditation of Laboratory Animal Committee (AAALAC)-accredited facility. Animals had ad libitum access to pelleted feed (Harlan Teklad 2020X, Indianapolis, IN) and water (on-site generated reverse osmosis) via automatic watering system.
All PAC1 peptides were tested in a rat maxadilan-induced increase in blood flow (MIIBF) pharmacodynamic (PD) model with a laser Doppler imaging. A dosing solution of maxadilan (Bachem, H6734.0500) was prepared fresh daily by diluted maxadilan stock solution (0.5 mg/mL) in 1× PBS to the final concentration of 0.5 μg/mL. All tested peptides were prepared in 1× PBS at different concentrations depend on the dose required for the experiment and given in a single bolus i.v. or s.c. injection. A laser Doppler imager (LDI-2, Moor Instruments, Ltd, Wilmington, Del.) was used to measure dermal blood flow (DBF) on the shaved skin of the rat abdomen with a low-power laser beam generated by a 633 nm helium-neon bulb. The measurement resolution was 0.2 to 2 mm, with scanning distances between the instrument aperture and the tissue surface of 30 cm. In this report, DBF was measured and expressed as % change from baseline [100×(individual post-CAP flux-individual baseline flux)/individual baseline flux] and further calculated to % Inhibition to quantify the magnitude of drug effect [Mean of vehicle % change from BL−individual drug treated rat % change from BL)/Mean of vehicle % change from BL].
On the test day, following anesthetization with propofol, the rat's abdominal area was shaved and each animal was placed in a supine position on a temperature-controlled circulating warm-water pad to maintain a stable body temperature during the study. After a 10 to 15 minute stabilization period, a rubber O-ring (0.925 cm inner diameter, O-Rings West, Seattle, Wash.) was placed on the rat abdomen without directly positioning it over a visible blood vessel while the rat placed in a supine position on a temperature-controlled circulating warm-water pad to maintain a stable body temperature during the study. After placement of an O-ring on the selected area, a baseline (BL) DBF measurement was taken. After the BL scan, PAC1 peptides were administrated either 5 min for i.v., or 15 min for s.c. then followed by 20 μL (in 0.5 μg/mL) intradermal injection of maxadilan at the center of the O-ring. The post-maxadilan DBF was measured at 30 min and the post peptides time was 35 min for i.v. and 45 min for s.c. respectively. The O-ring serves as an area of interest in which the DBF will be analyzed within the O-ring.
All DBF results were expressed as the mean±SEM. A one-way ANOVA followed by Dunnett's Multiple Comparison Test (MCT) was used to assess the statistical significance of PAC1 peptides effects relative to the vehicle within the study. A p<0.05 was used to determine significance between any two groups.

human PAC1 receptor = target: T2, human PAC1 receptor (Homo sapiens, UniProt P41586); assay: LANCE Ultra cAMP accumulation antagonist assay in SHSY-5Y cells; assay type: cell-based;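 further: inhibition of cAMP accumulation evoked by PAC1 agonist at its EC80 in SHSY-5Y cells endogenously expressing receptor, 30 min preincubation then 15 min agonist, TR-FRET readout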
T2 construct: SHSY-5Y (human neuroblastoma cell line) and RG-2 (rat glioma cell line) cells endogenously express human and rat PAC1 receptors, respectively; endogenous in cells; host or cells: SHSY-5Y human neuroblastoma cells
T2 sequence (P41586 21-468): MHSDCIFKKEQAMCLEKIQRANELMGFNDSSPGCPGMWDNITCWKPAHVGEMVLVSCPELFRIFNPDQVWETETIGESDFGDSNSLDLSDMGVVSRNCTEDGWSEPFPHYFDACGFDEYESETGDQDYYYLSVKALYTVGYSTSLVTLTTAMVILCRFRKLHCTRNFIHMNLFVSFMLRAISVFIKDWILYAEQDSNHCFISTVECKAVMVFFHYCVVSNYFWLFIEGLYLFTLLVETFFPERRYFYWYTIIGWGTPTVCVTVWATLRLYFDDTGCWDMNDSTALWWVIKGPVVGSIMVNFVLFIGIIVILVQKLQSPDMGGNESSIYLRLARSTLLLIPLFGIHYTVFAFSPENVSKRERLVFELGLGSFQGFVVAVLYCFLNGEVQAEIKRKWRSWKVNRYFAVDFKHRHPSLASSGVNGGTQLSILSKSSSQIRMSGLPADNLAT

rat PAC1 receptor = target: T3, rat PAC1 receptor (Rattus norvegicus, UniProt P32215); assay: LANCE Ultra cAMP accumulation antagonist assay in RG-2 cells; assay type: cell-based;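 further: RG-2 rat glioma cells endogenously expressing PAC1, test peptide preincubated 30 min, then PAC1 agonist added at its EC80 for 15 min, cAMP accumulation read by LANCE Ultra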
T3 construct: SHSY-5Y (human neuroblastoma cell line) and RG-2 (rat glioma cell line) cells endogenously express human and rat PAC1 receptors, respectively; endogenous in cells; host or cells: RG-2 rat glioma cells
T3 sequence (P32215 20-523): T1 sequence (P32215 20-523)

| Compound | inhibition of maxadilan-induced increase in DBF (PAC1) | IC50 (human PAC1 receptor) | IC50 (rat PAC1 receptor) | inhibition of MIIBF (dermal blood flow) (PAC1) |
| --- | --- | --- | --- | --- |
| CC[C@H](C)[C@H](NC(=O)[C@H](C)NC(=O)[C@H](CCCCN)NC(=O)[C@H](CCCNC(=N)N)NC(=O)[C@H](Cc1ccccc1)NC(=O)[C@H](CCC(N)=O)NC(=O)[C@@H]1CSSC[C@H](N)C(=O)N[C@@H](CC(=O)O)C(=O)N[C@@H](C)C(=O)N[C@@H]([C@@H](C)O)C(=O)N1)C(=O)N[C@@H](CC(=O)O)C(=O)N[C@@H](CC(=O)O)C(=O)N[C@H]1CSSC[C@@H](C(=O)N[C@@H](CCSC)C(=O)N[C@@H](CCCCN)C(=O)N[C@@H](CCC(N)=O)C(=O)N[C@@H](CCCCN)C(=O)N[C@@H](CCCCN)C(=O)N[C@@H](CCCCN)C(=O)N[C@@H](CCC(=O)O)C(=O)N[C@@H](Cc2c[nH]c3ccccc23)C(=O)N[C@@H](CCCCN)C(=O)N[C@@H](C)C(=O)NCC(N)=O)NC(=O)[C@H](C)NC(=O)[C@H](CCCCN)NC(=O)[C@H](Cc2ccccc2)NC(=O)[C@H](C(C)C)NC(=O)[C@H](CO)NC(=O)[C@H](CO)NC(=O)[C@H](Cc2c[nH]cn2)NC(=O)[C@H](Cc2ccc(O)cc2)NC(=O)[C@H](C)NC(=O)[C@H](CCC(N)=O)NC(=O)[C@H](CCCNC(=N)N)NC(=O)[C@H](C)NC1=O [SEQ ID NO 65] (H-CDATCQFRKAIDDCARQAYHSSVFKACMKQKKKEWKAG-NH2; disulfide 1-5, 14-27) | statistically significant inhibition | 0.01 to 1 nM | 0.01 to 1 nM |  |
| CC[C@H](C)[C@H](NC(=O)[C@H](C)NC(=O)[C@H](CCCCN)NC(=O)[C@H](CCCNC(=N)N)NC(=O)[C@H](Cc1ccccc1)NC(=O)[C@H](CCC(N)=O)NC(=O)[C@@H]1CSSC[C@H](N)C(=O)N[C@@H](CC(=O)O)C(=O)N[C@@H](C)C(=O)N[C@@H]([C@@H](C)O)C(=O)N1)C(=O)N[C@@H](CC(=O)O)C(=O)N[C@@H](CC(=O)O)C(=O)N[C@H]1CSSC[C@@H](C(=O)N[C@@H](CCSC)C(=O)N[C@@H](CCCCN)C(=O)N[C@@H](CCC(N)=O)C(=O)N[C@@H](CCCCN)C(=O)N[C@@H](CCCCN)C(=O)N[C@@H](CCCCN)C(=O)N[C@@H](CCC(=O)O)C(=O)N[C@@H](Cc2ccccc2)C(=O)N[C@@H](CCCCN)C(=O)N[C@@H](C)C(=O)NCC(N)=O)NC(=O)[C@H](C)NC(=O)[C@H](CCCCN)NC(=O)[C@H](Cc2ccccc2)NC(=O)[C@H](C(C)C)NC(=O)[C@H](CO)NC(=O)CNC(=O)[C@@H]2CCCN2C(=O)[C@H](C(C)C)NC(=O)[C@H](CC(N)=O)NC(=O)[C@H](CO)NC(=O)[C@H](Cc2c[nH]cn2)NC(=O)[C@H](Cc2c[nH]cn2)NC(=O)[C@H](C)NC(=O)[C@H](CCC(N)=O)NC(=O)[C@H](CCCCN)NC(=O)[C@H](CCC(N)=O)NC1=O [SEQ ID NO 233] |  | 1 to 100 nM | 0.01 to 1 nM | statistically significant inhibition |
| CC[C@H](C)[C@H](NC(=O)[C@H](C)NC(=O)[C@H](CCCCN)NC(=O)[C@H](CCCNC(=N)N)NC(=O)[C@H](Cc1ccccc1)NC(=O)[C@H](CCC(N)=O)NC(=O)[C@@H]1CSSC[C@H](N)C(=O)N[C@@H](CC(=O)O)C(=O)N[C@@H](C)C(=O)N[C@@H]([C@@H](C)O)C(=O)N1)C(=O)N[C@@H](CC(=O)O)C(=O)N[C@@H](CC(=O)O)C(=O)N[C@H]1CSSC[C@@H](C(=O)N[C@@H](CCSC)C(=O)N[C@@H](CCCCN)C(=O)N[C@@H](CCC(N)=O)C(=O)N[C@@H](CCCCN)C(=O)N[C@@H](CCCCN)C(=O)N[C@@H](CCCCN)C(=O)N[C@@H](CCC(=O)O)C(=O)N[C@@H](Cc2ccccc2)C(=O)N[C@@H](CCCCN)C(=O)N[C@@H](C)C(N)=O)NC(=O)C(C)(C)NC(=O)[C@H](CCCCN)NC(=O)[C@H](Cc2ccccc2)NC(=O)[C@H](C(C)C)NC(=O)[C@H](CO)NC(=O)CNC(=O)[C@@H]2CCCN2C(=O)[C@H](C(C)C)NC(=O)[C@H](CC(N)=O)NC(=O)[C@H](CO)NC(=O)[C@H](Cc2c[nH]cn2)NC(=O)[C@H](Cc2c[nH]cn2)NC(=O)[C@H](C)NC(=O)[C@H](CCC(N)=O)NC(=O)[C@H](CCCCN)NC(=O)[C@H](CCC(N)=O)NC1=O [SEQ ID NO 250] |  | 1 to 100 nM | 0.01 to 1 nM | statistically significant inhibition |
| CDATCQFRKAIDDCAKQAHHSNVPGSVFKACMKQKKKEFKAG-NH2 (disulfide 1-5, 14-31) [SEQ ID NO 180] | statistically significant inhibition | 0.01 to 1 nM | 0.01 to 1 nM | statistically significant inhibition |
| CDATCQFRKAIDDCDRQAHHSNVPGSVFKACMKQKKKEWKAG-NH2 (disulfide 1-5, 14-31) [SEQ ID NO 163] | statistically significant inhibition | 0.01 to 1 nM | 0.01 to 1 nM |  |
| CDATCQFRKAIDDCLLRAWHSNVPGSVFKACMKQKKKEFKAG-NH2 (disulfide 1-5, 14-31) [SEQ ID NO 85] | statistically significant inhibition | 0.01 to 1 nM | 0.01 to 1 nM |  |
| CDATCQFRKAIDDCVKQAHHSNVPGSVFKACMKQKKKEFKAG-NH2 (disulfide 1-5, 14-31) [SEQ ID NO 179] |  | 0.01 to 1 nM | 0.01 to 1 nM | statistically significant inhibition |
| GCDATCQFRKAIDDCAKQAHHSNVPGSVFKACMKQKKKEFKAGY (disulfide 2-6, 15-32) [SEQ ID NO 58] |  | 0.01 to 1 nM | 0.01 to 1 nM |  |
| GCDATCQFRKAIDDCQKQAHHSNVPGSVFKACMKQKKKEFKAG-NH2 (disulfide 2-6, 15-32) [SEQ ID NO 181] |  | 1 to 100 nM | 0.01 to 1 nM | statistically significant inhibition |
| SCDATCQFRKAIDDCQKQAHHSNVPGSVFKACMKQKKKEFKAG-NH2 (disulfide 2-6, 15-32) [SEQ ID NO 183] |  | 1 to 100 nM | 0.01 to 1 nM | statistically significant inhibition |
| SDATSQYRKGLVACLYKKVAMQKRYSVFKACMKQKKKEWKAG-NH2 (disulfide 14-31) [compound 426] |  | 1 to 100 nM | 0.01 to 1 nM |  |

Source: US20210395313A1, “PEPTIDE PAC1 ANTAGONISTS” (AMGEN INC., priority 2017, published 2021)
